# Tests used:
# [1] = Generation of bioluminescence from luciferin borates upon treatment with hydrogen peroxide (luciferase light reaction); type: biochemical
# Procedure: In this example, luciferin borates were incubated with hydrogen peroxide, and luciferin generation was measured using a light reaction catalyzed by luciferase. An increase in light output (bioluminescence) as a result of treatment of the luciferin borates with hydrogen peroxide indicates generation of luciferin as a result of the reaction with hydrogen peroxide.
# 1 M phosphate solutions (either 6.8 g of KH2PO4 (Fisher) or 11.4 g of K2HPO4 (Sigma) were dissolved in Nanopure water to 1 M) were diluted 1:5 with Nanopure water to produce 200 mM phosphate solutions. 200 mM phosphate buffers at pH 6.87, 7.41, 7.73, 8.04, and 9.18 were prepared. 4 mg/ml solutions of PBI 3048, 4013, 4424 and 4425 (FIG. 1) in DMSO (Fluka 41641) were made from solid powder.
# Into two 96-well white, solid bottom luminometer plates (Promega Z3291) (labeled “A” and “B”), 50 μl of 200 mM phosphate buffer pH 6.87 was added to wells A1-H2; 50 μl of 200 mM phosphate pH 7.41 was added to wells A3-H4; 50 μl of 200 mM phosphate buffer pH 7.73 was added to wells A5-H6; 50 μl of 200 mM phosphate buffer pH 8.04 was added to wells A7-H8; and 50 μl of 200 mM phosphate buffer pH 9.18 was added to wells A9-H10.
# 50 μl of 4 mg/ml PBI 4013 in DMSO was diluted to 1.25 ml with Nanopure water, and 25 μl added to wells A1-D10 of plate A. 50 μl of 4 mg/ml PBI 4424 was diluted to 1.25 ml with Nanopure water, and 25 μl added to E1-H10 of plate A. 50 μl of 4 mg/ml PBI 3048 was diluted to 1.25 ml with Nanopure water, and 25 μl added to A1-D10 of plate B. 50 μl of 4 mg/ml PBI 4425 was diluted to 1.25 ml with Nanopure water, and 25 μl added to E1-H10 of plate B. 25 μl of Nanopure water was added to rows A and E of both plates. 17 μl of Nanopure water was added to rows B and F of both plates; and 8 μl of Nanopure water was added to rows C and G of both plates
# A hydrogen peroxide solution (30% hydrogen peroxide, Sigma H1009-5 ml) was diluted to 60 μM hydrogen peroxide with Nanopure water, and 25 μl of the 60 μM hydrogen peroxide was added to rows D and H of both plates; 17 μl of […] hydrogen peroxide was added to rows C and G of both plates; and 8 μl of […] hydrogen peroxide was added to rows B and F of both plates. Both plates A and B were then gently mixed for 70 minutes.
# A bottle of Reconstitution Buffer with Esterase (Promega V144B) was thawed and used to reconstitute a Luciferin Detection Reagent (Promega V859B) to create a reconstituted Luciferin Detection Reagent (“LDR”). 15 ml of 1 M HEPES buffer, pH 7.5 was mixed with 25 ml of the LDR, and 80 μl added to wells A1-H10 of two new luminometer plates (“R1” and “R2”).
# Following incubation, 20 μl of the contents of wells A1-H10 of plate A was transferred to the same wells in plate R1, and 20 μl of A1-H10 of plate B was transferred to the same wells in plate R2. Plate R1 and R2 were then incubated at room temperature for 15 minutes, and bioluminescence was measured with a GloMax® luminometer (Promega Corp).
# Bioluminescence from duplicate wells was averaged, and the average relative light units (RLUs) from samples containing peroxide were compared to those from the samples not containing peroxide incubated at the same pH (Table 1).
# [2] = Background reduction of PBI 4472 with background reduction reagent (TCEP); type: biochemical; conditions: 50 μM, 100 mM Tris base pH 10.4, BRR (TCEP) versus untreated, FIG. 4
# Procedure: PBI 4472 (50 μM) was incubated with assay buffer (100 mM Tris base, pH 10.4) for 15 minutes at room temperature. The samples were then either treated with a background reduction reagent (BRR; TCEP) or remained untreated. After a 15 minute incubation at room temperature, luciferin detection reagent with 1 mM D-cysteine (Promega Corporation) was added to the samples and incubated for 20 minutes at room temperature. Luminescence was detected on a Tecan F500 plate reader.
compound,measurement,setting,value
O=C(O)C1CSC(c2nc3ccc(OCc4ccc(B(O)O)cc4)cc3s2)=N1 (stereo not shown) [PBI 3048],average relative light units (bioluminescence),"[1]; H2O2 0 μM, phosphate buffer pH 6.87, 70 minutes","392,535 RLU"
same,average relative light units (bioluminescence),"[1]; H2O2 0 μM, phosphate buffer pH 7.41, 70 minutes","418,478 RLU"
same,average relative light units (bioluminescence),"[1]; H2O2 0 μM, phosphate buffer pH 7.73, 70 minutes","470,830 RLU"
same,average relative light units (bioluminescence),"[1]; H2O2 0 μM, phosphate buffer pH 8.04, 70 minutes","561,030 RLU"
same,average relative light units (bioluminescence),"[1]; H2O2 0 μM, phosphate buffer pH 9.18, 70 minutes","819,156 RLU"
same,average relative light units (bioluminescence),"[1]; H2O2 5 μM, phosphate buffer pH 6.87, 70 minutes","521,375 RLU"
same,average relative light units (bioluminescence),"[1]; H2O2 5 μM, phosphate buffer pH 7.41, 70 minutes","794,181 RLU"
same,average relative light units (bioluminescence),"[1]; H2O2 5 μM, phosphate buffer pH 7.73, 70 minutes","1,200,842 RLU"
same,average relative light units (bioluminescence),"[1]; H2O2 5 μM, phosphate buffer pH 8.04, 70 minutes","1,831,013 RLU"
same,average relative light units (bioluminescence),"[1]; H2O2 5 μM, phosphate buffer pH 9.18, 70 minutes","3,834,248 RLU"
same,average relative light units (bioluminescence),"[1]; H2O2 10 μM, phosphate buffer pH 6.87, 70 minutes","717,216 RLU"
same,average relative light units (bioluminescence),"[1]; H2O2 10 μM, phosphate buffer pH 7.41, 70 minutes","1,302,514 RLU"
same,average relative light units (bioluminescence),"[1]; H2O2 10 μM, phosphate buffer pH 7.73, 70 minutes","2,057,780 RLU"
same,average relative light units (bioluminescence),"[1]; H2O2 10 μM, phosphate buffer pH 8.04, 70 minutes","3,137,287 RLU"
same,average relative light units (bioluminescence),"[1]; H2O2 10 μM, phosphate buffer pH 9.18, 70 minutes","6,426,397 RLU"
same,average relative light units (bioluminescence),"[1]; H2O2 15 μM, phosphate buffer pH 6.87, 70 minutes","833,785 RLU"
same,average relative light units (bioluminescence),"[1]; H2O2 15 μM, phosphate buffer pH 7.41, 70 minutes","1,709,044 RLU"
same,average relative light units (bioluminescence),"[1]; H2O2 15 μM, phosphate buffer pH 7.73, 70 minutes","2,713,251 RLU"
same,average relative light units (bioluminescence),"[1]; H2O2 15 μM, phosphate buffer pH 8.04, 70 minutes","4,193,451 RLU"
same,average relative light units (bioluminescence),"[1]; H2O2 15 μM, phosphate buffer pH 9.18, 70 minutes","7,447,757 RLU"
same,light signal increase upon addition of hydrogen peroxide (in words),[1]; all pH values 6.87 to 9.18,increased strongly
"CC1(C)OB(c2ccc(COc3ccc4nc(C#N)sc4c3)cc2)OC1(C)C [PBI 4472, 6-((4-(4,4,5,5-tetramethyl-1,3,2-dioxaborolan-2-yl)benzyl)oxy)benzo-[d]thiazole-2-carbonitrile]",background luminescence with reduction reagent (in words),[2],can reduce background

# — US8937183B2, “Detection of hydrogen peroxide” (Promega Corporation, priority 2011, dated 2015)
